Test results published in patent US11485728B2, “Small molecules for the treatment of autoimmune diseases and cancer” (Athos Therapeutics, Inc., priority 2020, dated 2022).
Like-named read-outs stand apart in the source and are kept apart here.

What was measured:
CYP2C8 = biological target: T1, CYP2C8 (Homo sapiens, UniProt P10632); experiment: CYP-direct inhibition, CYP2C8; format: in vitro ADME
T1 construct: from tissue; host or cells: pooled human liver microsomes
T1 sequence (P10632 1-490): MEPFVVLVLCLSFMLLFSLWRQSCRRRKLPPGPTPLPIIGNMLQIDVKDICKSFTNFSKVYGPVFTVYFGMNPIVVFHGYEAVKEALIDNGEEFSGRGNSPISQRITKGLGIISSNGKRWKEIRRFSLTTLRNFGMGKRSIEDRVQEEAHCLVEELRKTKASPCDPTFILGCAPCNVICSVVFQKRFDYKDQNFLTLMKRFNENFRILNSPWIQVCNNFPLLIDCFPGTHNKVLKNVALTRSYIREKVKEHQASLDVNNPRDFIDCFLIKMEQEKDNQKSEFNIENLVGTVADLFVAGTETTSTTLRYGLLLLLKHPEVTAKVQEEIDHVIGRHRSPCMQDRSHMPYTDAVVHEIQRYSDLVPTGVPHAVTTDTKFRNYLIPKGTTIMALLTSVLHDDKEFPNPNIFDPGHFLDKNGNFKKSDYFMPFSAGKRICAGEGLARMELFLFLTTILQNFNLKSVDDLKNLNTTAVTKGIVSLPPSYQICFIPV
Description: (§1) Many drugs inhibit cytochrome P450 enzymes to cause clinically significant changes in the pharmacokinetics of other drugs. In vitro cytochrome P450 inhibition, can provide crucial information in evaluating potential clinical drug-drug interactions and is useful for focusing in vivo tests to areas of concern. The cytochrome P450 inhibition assay was developed by preparing a working cocktail solution consisting of six probe substrates 10 μM ethoxy-resorufin (CYP1A2), 100 μM rosiglitazone (CYP2C8), 50 μM diclofenac (CYP2C9), 300 μM S-mephenytoin (CYP2C19), 50 μM dextromethorphan (CYP2D6), and 20 μM midazolam (CYP3A4). A mixture solution consists of 140 uL of 0.286 mg/mL of pooled human liver microsome working solution and 20 uL working solutions of test articles, standard control inhibitors, or positive control placebo and 20 uL of substrate cocktail mixture working solution was prepared. The mixture solution was pre-warm in a gentle shaking bath at 37±2° C. for 5 minutes. The enzymatic reaction started by adding 20 uL of NRS working solution to the mixture solution and incubated for 10 minutes at 37±2° C. To stop the reaction, an addition of 400 μL cold stop solution (acetonitrile containing 50 ng/mL Tolbutamide as an internal standard (I.Std.) was added to the mixture solution. The final concentration of test article, inhibitors, substrates, and cofactors are noted in Table 0.1 below. Two individual samples were prepared for each test compound. The extracted samples were vortexed and then centrifuged at 4500 rpm for 7 minutes using Eppendorf Centrifuge 5910R. 200 uL of supernatant was diluting with 200 uL of 50% Methanol into 96-DW plate for LC/MS/MS analysis
(§2) Concentration-response plots are used to determine the effects of an inhibitor on an enzymatic reaction. A typical concentration-response plot provides fractional activity (Y axis) is plotted as a function of log inhibitor concentration (X axis). The data are fitted using a standard Sigmoidal dose-response equation which is also called a […] logistic equation. The concentration of compound that results in 50% inhibition of maximal activity is termed as the IC50 (inhibitor concentration yielding 50% inhibition). IC50 value is calculated using Prism GraphPad software, version 9. […].
(§3) Cytochrome P450 inhibition of a drug is a key factor in determining pharmacokinetic drug-drug interactions. The objective of this study was to evaluate the inhibition potential of G9a inhibitors on six (6) major human cytochrome P450 enzymes, including CYP1A2, CYP2C8, CYP2C9, CYP2C19, CYP2D6, and CYP3A4. Inhibition was determined by using a substrate cocktail and analyzing the rate of specific metabolites formation. The cytochrome P450 inhibition assay was developed using a cocktail consisting of six (6) probe substrates ethoxy-resorufin (CYP1A2), rosiglitazone (CYP2C8), diclofenac (CYP2C9), S-mephenytoin (CYP2C19), dextromethorphan (CYP2D6), and midazolam (CYP3A4). The cocktail was incubated in human liver microsome with NADPH regenerating system (NRS) in a shaking bath at 37±2° C. The formation of specific metabolites was monitored by LC/MS/MS. Test compound was added to the cocktail-liver microsome mixture at varying concentrations and its effect on cytochrome P450 activity was determined by analyzing the rate of specific metabolite formation. The percent inhibition was calculated and plotted with reference to the concentration, and the IC50 value for inhibition was derived by fitting the data with a using log(inhibitor) vs. normalized response with variable slope least squares fit by Graphpad Prism® software. […].

CYP1A2 = biological target: T2, CYP1A2 (Homo sapiens, UniProt P05177); experiment: CYP-direct inhibition, CYP1A2; format: in vitro ADME
T2 construct: from tissue; host or cells: pooled human liver microsomes
T2 sequence (P05177 1-516): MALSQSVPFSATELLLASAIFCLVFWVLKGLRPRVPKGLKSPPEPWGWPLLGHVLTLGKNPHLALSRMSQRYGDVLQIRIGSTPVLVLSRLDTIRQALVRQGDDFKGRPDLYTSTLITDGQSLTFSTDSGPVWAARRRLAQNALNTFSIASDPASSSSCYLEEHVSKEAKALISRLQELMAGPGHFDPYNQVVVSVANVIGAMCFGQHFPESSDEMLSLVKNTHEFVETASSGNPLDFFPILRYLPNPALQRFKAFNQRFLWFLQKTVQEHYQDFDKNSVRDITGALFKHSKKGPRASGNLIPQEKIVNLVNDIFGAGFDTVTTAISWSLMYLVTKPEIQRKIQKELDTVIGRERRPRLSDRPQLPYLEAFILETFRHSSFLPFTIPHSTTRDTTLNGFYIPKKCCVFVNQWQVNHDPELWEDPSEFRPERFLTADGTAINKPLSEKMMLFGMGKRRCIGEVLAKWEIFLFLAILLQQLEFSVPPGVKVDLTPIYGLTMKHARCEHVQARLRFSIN
Description: as §1, §2, §3

[1] = human liver microsome, substrate ethoxy-resorufin, read-out: IC50 CYP-1A2

SMILES	IC50 (CYP2C8)	IC50 (CYP1A2; [1])	IC50 (CYP1A2)
COc1cc2c(NC3CCOCC3)nc(N3CCOCC3)nc2cc1OCCCN1CCCC1 [Compound 195, 6-methoxy-2-morpholino-7-(3-(pyrrolidin-1-yl)propoxy)-N-(tetrahydro-2H-pyran-4-yl)quinazolin-4-amine]	> 100 µM	> 100 µM	
COc1cc2c(NC3CCN(C(C)C)CC3)nc(N3CCC3)nc2cc1OCCCN1CCCC1 [Compound 234, 2-(azetidin-1-yl)-N-(1-isopropylpiperidin-4-yl)-6-methoxy-7-(3-(pyrrolidin-1-yl)propoxy)quinazolin-4-amine]	> 100 µM	> 100 µM	
COc1cc2c(NC3CCN(C(C)C)CC3)nc(C#N)nc2cc1OCCCN1CCCC1 [Compound 235, 4-((1-isopropylpiperidin-4-yl)amino)-6-methoxy-7-(3-(pyrrolidin-1-yl)propoxy)quinazoline-2-carbonitrile]	> 100 µM	> 100 µM	
COc1cc2c(NC3CCS(=O)(=O)CC3)nc(N3CCC(F)(F)CC3)nc2cc1C#CCN1CCCC1 [Compound 248, 4-((2-(4,4-difluoropiperidin-1-yl)-6-methoxy-7-(3-(pyrrolidin-1-yl)prop-1-yn-1-yl)quinazolin-4-yl)amino)tetrahydro-2H-thiopyran 1,1-dioxide]	43.1 µM	> 100 µM	
COc1cc2c(NC3CCN(C(C)C)CC3)nc(N3CCC(F)(F)CC3)nc2cc1OCCCN1CCCC1 [Compound 400, 2-(4,4-difluoropiperidin-1-yl)-N-(1-isopropylpiperidin-4-yl)-6-methoxy-7-(3-(pyrrolidin-1-yl)propoxy)quinazolin-4-amine, reference compound]	> 100 µM		> 100 µM

Second part, led by results:

IC50 (CYP2C8)	IC50 (CYP1A2; [1])	SMILES	IC50 (CYP1A2)
91.8 µM	> 100 µM	COc1cc2c(NC3CCOCC3)nc(N3CCCC3)nc2cc1OCCCN1CCCC1 [Compound 164, 6-methoxy-2-(pyrrolidin-1-yl)-7-(3-(pyrrolidin-1-yl)propoxy)-N-(tetrahydro-2H-pyran-4-yl)quinazolin-4-amine]	
> 100 µM	63.1 µM	COc1cc2c(NC3CCOCC3)nc(N3CCC3)nc2cc1OCCCN1CCCC1 [Compound 174, 2-(azetidin-1-yl)-6-methoxy-7-(3-(pyrrolidin-1-yl)propoxy)-N-(tetrahydro-2H-pyran-4-yl)quinazolin-4-amine]	
> 100 µM	> 100 µM	COc1cc2c(NC3CCOCC3)nc(N3CCS(=O)(=O)CC3)nc2cc1OCCCN1CCCC1 [Compound 196, 4-(6-methoxy-7-(3-(pyrrolidin-1-yl)propoxy)-4-((tetrahydro-2H-pyran-4-yl)amino)quinazolin-2-yl)thiomorpholine 1,1-dioxide]	
> 100 µM	> 100 µM	COc1cc2c(NC3CCOCC3)nc(N3CCN(C)CC3)nc2cc1OCCCN1CCCC1 [Compound 236, 6-methoxy-2-(4-methylpiperazin-1-yl)-7-(3-(pyrrolidin-1-yl)propoxy)-N-(tetrahydro-2H-pyran-4-yl)quinazolin-4-amine]	
95.5 µM	> 100 µM	COc1cc2c(NC3CCOCC3)nc(N3CCCN(C)CC3)nc2cc1OCCCN1CCCC1 [Compound 237, 6-methoxy-2-(4-methyl-1,4-diazepan-1-yl)-7-(3-(pyrrolidin-1-yl)propoxy)-N-(tetrahydro-2H-pyran-4-yl)quinazolin-4-amine]	
